What was measured:
Type in all cases: functional, Mus musculus
P388 [1] = experiment: Number of Survivors determined for antitumor activity against P388 Lymphocytic Leukemia system on day 5 at a dose of 17.5 mg/kg (6 out of 6)
P388 [2] = experiment: Weight difference observed in survivors treated for antitumor activity against P388 Lymphocytic Leukemia system at a dose of 8.75 mg/kg
P388 [3] = experiment: Survival rate of the animals determined for antitumor activity against P388 Lymphocytic Leukemia system at a dose of 17.5 mg/kg
P388 [4] = experiment: Survival rate of the animals determined for antitumor activity against P388 Lymphocytic Leukemia system at a dose of 35 mg/kg
P388 [5] = experiment: Number of Survivors determined for antitumor activity against P388 Lymphocytic Leukemia system on day 5 at a dose of 35 mg/kg (6 out of 6)
P388 [6] = experiment: Number of Survivors determined for antitumor activity against P388 Lymphocytic Leukemia system on day 5 at a dose of 70 mg/kg(6 out of 6)
P388 [7] = experiment: Number of Survivors determined for antitumor activity against P388 Lymphocytic Leukemia system on day 5 at a dose of 8.75 mg/kg(6 out of 6)
P388 [8] = experiment: Survival rate of the animals determined for antitumor activity against P388 Lymphocytic Leukemia system at a dose of 70 mg/kg
P388 [9] = experiment: Survival rate of the animals determined for antitumor activity against P388 Lymphocytic Leukemia system at a dose of 8.75 mg/kg
P388 [10] = experiment: Weight difference observed in survivors treated for antitumor activity against P388 Lymphocytic Leukemia system at a dose of 35 mg/kg
P388 [11] = experiment: Weight difference observed in survivors treated for antitumor activity against P388 Lymphocytic Leukemia system at a dose of 70 mg/kg
P388 [12] = experiment: Weight difference observed in survivors treated for antitumor activity against P388 Lymphocytic Leukemia system at a dose of 17.5 mg/kg
P388 [13] = experiment: Number of Survivors determined for antitumor activity against P388 Lymphocytic Leukemia system on day 5 at a dose of 192 mg/kg (6 out of 6)
P388 [14] = experiment: Number of Survivors determined for antitumor activity against P388 Lymphocytic Leukemia system on day 5 at a dose of 24 mg/kg (6 out of 6)
P388 [15] = experiment: Survival rate of the animals determined for antitumor activity against P388 Lymphocytic Leukemia system at a dose of 192 mg/kg
P388 [16] = experiment: Survival rate of the animals determined for antitumor activity against P388 Lymphocytic Leukemia system at a dose of 24 mg/kg
P388 [17] = experiment: Number of Survivors determined for antitumor activity against P388 Lymphocytic Leukemia system on day 5 at a dose of 48 mg/kg (6 out of 6)
P388 [18] = experiment: Weight difference observed in survivors treated for antitumor activity against P388 Lymphocytic Leukemia system at a dose of 192 mg/kg
P388 [19] = experiment: Weight difference observed in survivors treated for antitumor activity against P388 Lymphocytic Leukemia system at a dose of 96 mg/kg
P388 [20] = experiment: Survival rate of the animals determined for antitumor activity against P388 Lymphocytic Leukemia system at a dose of 48 mg/kg
P388 [21] = experiment: Weight difference observed in survivors treated for antitumor activity against P388 Lymphocytic Leukemia system at a dose of 24 mg/kg
P388 [22] = experiment: Weight difference observed in survivors treated for antitumor activity against P388 Lymphocytic Leukemia system at a dose of 48 mg/kg
P388 [23] = experiment: Number of Survivors determined for antitumor activity against P388 Lymphocytic Leukemia system on day 5 at a dose of 96 mg/kg(6 out of 6)
P388 [24] = experiment: Survival rate of the animals determined for antitumor activity against P388 Lymphocytic Leukemia system at a dose of 96 mg/kg

`O=C(OCC1=CC[N+]2([O-])CC[C@@H](O)C12)c1ccccc1` (some centres undefined) was tested, and the Survivors (P388 [1]) was 6, the T-C (P388 [2]) was -0.4 and the T/C (P388 [3]) was 110%. For the same compound, the T/C (P388 [4]) was 109%, the Survivors (P388 [5]) was 6 and the Survivors (P388 [6]) was 6. The Survivors (P388 [7]) was 6, the T/C (P388 [8]) was 118% and the T/C (P388 [9]) was 107%. It also gave a T-C (P388 [10]) of -0.1, a T-C (P388 [11]) of -1 and a T-C (P388 [12]) of -0.7.
For `CC(C)C(O)(C(=O)OCC1=CC[N+]2([O-])CC[C@@H](O)C12)C(C)O` (stereo in doubt; form 3), the Survivors (P388 [13]) was 6, the Survivors (P388 [14]) was 6 and the T/C (P388 [15]) was 109%. For the same compound, the T/C (P388 [16]) was 100%, the Survivors (P388 [17]) was 6 and the T-C (P388 [18]) was -1.1. The T-C (P388 [19]) was -0.1, the T/C (P388 [20]) was 105% and the T-C (P388 [21]) was -0.1. The T-C (P388 [22]) was -0.4, the Survivors (P388 [23]) was 6 and the T/C (P388 [24]) was 107%.

From ChEMBL document CHEMBL1123145, “Synthesis of pyrrolizidine alkaloids indicine, intermedine, lycopsamine, and analogues and their N-oxides. Potential antitumor agents” (1985)
